The source of these data is ChEMBL document CHEMBL1201862, “PubChem BioAssay data set” (2004).

SMILES strings stand for the structures.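 Cells were grown in 96-well plates and exposed to each compound for 48 hours at five concentrations; endpoints were interpolated linearly between bracketing concentrations, or set to the highest concentration if not reached. GI50 marks 50% less growth.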 Calls of active or inactive are those of the source. Cut-off read from the data, not from the text of the source: active = GI50 up to about 1.1 µM and inactive = higher. Non-standard residues stand in square brackets, D forms with d. Residues, ends and D or L forms follow the SMILES beside them. ΔPro = O=C(O)[CH]1C=CCN1

Some test systems named below: NCI-H522; UACC-257; MDA-MB-231; 786-0; NCI-H23; SF-539; UO-31; SK-MEL-5; COLO 205; SN12C; U-251; NCI-H226; SK-MEL-28; A549; NCI/ADR-RES; SNB-75; HOP-62; MOLT-4; RXF 393; HOP-92.
Common to all, as to test: inhibition of tumour cell growth, NCI panel, 48 h

On to `Cc1ccc(N)cc1.O=S(=O)(O)/C(=C\c1ccccc1)c1ccccc1`, for which the GI50 with NCI-H522, in the test with UACC-257, in the test with MDA-MB-231, in the test with 786-0, in the test with NCI-H23 and in the test with SF-539 was > 100 µM (inactive) in each case. For the same compound, the GI50 with UO-31 is 70.6 µM (inactive); in the test on SK-MEL-5, 93.3 µM (inactive); in the test on COLO 205 it was > 100 µM (inactive); in the test with SN12C, > 100 µM (inactive); with U-251 it was > 100 µM (inactive); in the test on NCI-H226 it was > 100 µM (inactive). Moreover, the GI50 in the test with SK-MEL-28, in the test on A549, with NCI/ADR-RES, with SNB-75, with HOP-62 and with MOLT-4 was > 100 µM (inactive) in each case. Besides, the GI50 in the test on RXF 393 and in the test on HOP-92 was > 100 µM (inactive) in each case.
For the compound `O=C(CCc1ccc(O)c(O)c1)NCCc1ccc(O)c(O)c1`, the GI50 in the test with NCI-H522 is > 100 µM (inactive); in the test on UACC-257, > 100 µM (inactive); in the test on MDA-MB-231 it was 25.6 µM (inactive); with 786-0, 18.6 µM (inactive); in the test with NCI-H23, > 100 µM (inactive); in the test with SF-539 it was > 100 µM (inactive). The GI50 in the test with UO-31 was > 100 µM (inactive); in the test on SK-MEL-5, > 100 µM (inactive); in the test on COLO 205, > 100 µM (inactive); in the test with SN12C, 37.1 µM (inactive); in the test with U-251, 17.3 µM (inactive); in the test on NCI-H226, > 100 µM (inactive). The GI50 was > 100 µM (inactive) with SK-MEL-28; > 100 µM (inactive) with A549; > 100 µM (inactive) with NCI/ADR-RES; > 100 µM (inactive) in the test on SNB-75; > 100 µM (inactive) in the test with HOP-62; 57.7 µM (inactive) in the test on MOLT-4. In addition, the GI50 with RXF 393 and with HOP-92 was > 100 µM (inactive) in each case.
As for `CSc1nc(C)c2c(n1)N(c1ccc(Cl)cc1)CC2`, the GI50 is > 100 µM (inactive) in the test with NCI-H522; > 100 µM (inactive) in the test with UACC-257; 42.3 µM (inactive) with MDA-MB-231; 77.1 µM (inactive) in the test on 786-0; > 100 µM (inactive) with NCI-H23; 70.8 µM (inactive) with SF-539. Besides, the GI50 in the test with UO-31 was 0.342 µM (active); in the test with SK-MEL-5, > 100 µM (inactive); in the test on COLO 205 it was > 100 µM (inactive); in the test with SN12C, > 100 µM (inactive); with U-251 it was > 100 µM (inactive); in the test with NCI-H226 it was > 100 µM (inactive). The GI50 was > 100 µM (inactive) with SK-MEL-28; > 100 µM (inactive) in the test on A549; > 100 µM (inactive) in the test on NCI/ADR-RES; 0.0946 µM (active) with SNB-75; > 100 µM (inactive) in the test with HOP-62; > 100 µM (inactive) in the test on MOLT-4. Further, the GI50 with RXF 393 and in the test on HOP-92 was > 100 µM (inactive) each time.
Turning to `C=CCN(C(=O)CNC(=O)C(F)(F)F)c1cc(OCc2ccccc2)c2c(c1)c(C)cn2S(=O)(=O)c1ccccc1`, the GI50 in the test with NCI-H522 was 6.19 µM (inactive); in the test with UACC-257, > 27.5 µM (inactive); with MDA-MB-231 it was > 24.1 µM (inactive); in the test with 786-0 it was > 100 µM (inactive); in the test on NCI-H23, > 87.7 µM (inactive); in the test with SF-539 it was > 100 µM (inactive). For the same compound, the GI50 is 2.9 µM (inactive) in the test on UO-31; 24 µM (inactive) with SK-MEL-5; 8.02 µM (inactive) in the test with COLO 205; > 100 µM (inactive) in the test on SN12C; > 67.9 µM (inactive) in the test on U-251; > 34.8 µM (inactive) in the test on NCI-H226. Moreover, the GI50 was > 100 µM (inactive) in the test on SK-MEL-28; 7.5 µM (inactive) with A549; > 100 µM (inactive) in the test with NCI/ADR-RES; 4.8 µM (inactive) with SNB-75; > 100 µM (inactive) in the test with HOP-62; 4.16 µM (inactive) with MOLT-4. Further, the GI50 in the test on RXF 393 is 5.51 µM (inactive); in the test with HOP-92, 4.92 µM (inactive).
Regarding `COc1c(OC(C)C)c(OC(C)C)c2oc(=O)n3c2c1C(c1ccccc1-n1c(C)ccc1C)C=C3` (stereo not given), the GI50 in the test with NCI-H522 was 26.7 µM (inactive); with UACC-257 it was 45 µM (inactive); with MDA-MB-231, 45 µM (inactive); with 786-0, 80.7 µM (inactive); with NCI-H23, 34.8 µM (inactive); in the test with SF-539, 67.5 µM (inactive). In addition, the GI50 is 36.1 µM (inactive) with UO-31; 98.4 µM (inactive) with SK-MEL-5; > 100 µM (inactive) with COLO 205; 71.9 µM (inactive) in the test with SN12C; > 100 µM (inactive) with U-251; 17.1 µM (inactive) with NCI-H226. Besides, the GI50 with SK-MEL-28 was 37.8 µM (inactive); in the test with A549, 39.4 µM (inactive); with NCI/ADR-RES it was 33.6 µM (inactive); in the test with SNB-75, 41.8 µM (inactive); in the test with HOP-62, 30.5 µM (inactive); in the test on MOLT-4, 42.5 µM (inactive). Also, the GI50 in the test on RXF 393 is 22 µM (inactive); with HOP-92, 53.7 µM (inactive).
For the compound `COc1ccc2cc(/C=N\NC(=O)Nc3ccc([N+](=O)[O-])cc3)ccc2c1`, the GI50 in the test on NCI-H522 is 13.5 µM (inactive); in the test on UACC-257, 14.6 µM (inactive); with MDA-MB-231, 13.9 µM (inactive); in the test on 786-0 it was 8.59 µM (inactive); in the test with NCI-H23, 11.4 µM (inactive); with SF-539, 8.24 µM (inactive). Besides, the GI50 was 13.6 µM (inactive) in the test with UO-31; 11.7 µM (inactive) in the test on SK-MEL-5; 13.1 µM (inactive) in the test on COLO 205; 12.4 µM (inactive) in the test on SN12C; 13.6 µM (inactive) in the test on U-251; > 10 µM (inactive) with NCI-H226. The GI50 is 14.6 µM (inactive) with SK-MEL-28; 11.2 µM (inactive) with A549; 13.6 µM (inactive) with NCI/ADR-RES; 13.2 µM (inactive) in the test on SNB-75; 14.8 µM (inactive) in the test with HOP-62; 16.5 µM (inactive) in the test with MOLT-4. Also, the GI50 in the test with RXF 393 is 11.2 µM (inactive); with HOP-92, 16 µM (inactive).
For `O=C(O)C1C=CCN1C(=O)C1C=CCN1C(=O)C1C=CCN1` (stereo not given) (H-[ΔPro]-[ΔPro]-[ΔPro]-OH; configuration not given here), the GI50 with NCI-H522, with UACC-257, with MDA-MB-231, in the test on 786-0, in the test on NCI-H23 and in the test on SF-539 was > 100 µM (inactive) each time. The GI50 with UO-31 is > 100 µM (inactive); with SK-MEL-5, > 100 µM (inactive); with COLO 205, > 100 µM (inactive); in the test with SN12C, > 100 µM (inactive); in the test on U-251, > 100 µM (inactive); in the test with NCI-H226 it was 33.5 µM (inactive). The GI50 in the test with SK-MEL-28, with A549, with NCI/ADR-RES, in the test with SNB-75, with HOP-62 and with MOLT-4 was > 100 µM (inactive) in each case. Besides, the GI50 with RXF 393 was 4.21 µM (inactive); in the test on HOP-92, > 100 µM (inactive).
